In data set [1] the test system is Male Kunming mice. Description: Test for latent period and persistent period of anesthesia in mice. It counts as in vivo. The conditions noted are these: 6 mg/kg (3*ED50), caudal vein, n = 5; for Latent period: time for disappearance of righting reflex; for Persistent period: time for recovery. The procedure: Test of the etomidate derivative of the present invention for latent period and persistent period of anesthesia in mice
Male Kunming mice were divided into groups, 5 for each group. The test drug was administered by injection at a constant rate via caudal vein for 10 seconds. The time for disappearance of righting reflex (latent period) and the time for recovery (persistent period) were recorded.

Data set [2] has as its system mice. The data set can be described thus: Influence on the blood pressure and followed-up reactions after recovery in mice anesthesia test. It counts as in vivo. The settings on record: for grooming / tail bleeding: few / tail bleeding: much / tail bleeding: none / tremor: after administration & before anesthesia.
Data set [3] concerns KM mice (male). The data set can be described thus: Test of ED50 and LD50 of anesthesia in mice (sequential method; disappearance of righting reflex or death). It counts as in vivo. The settings on record: for ED50: Mus musculus; for TI: TI=LD50/ED50, mice. The procedure: (§1) Test of ED50 and LD50 of the etomidate derivative of the present invention in mice
(§2) Accurately weighed compounds 14, 15, 16 and 18 (5 mg for each of the compounds) were placed in 10 ml centrifuge tubes, respectively. Then 1 ml blank emulsion (20% soybean oil blank emulsion) was added to each tube, and the mixture was sonicated in an ultrasonic apparatus for several minutes to obtain a 5 mg/ml homogeneous emulsion, which was drawn by an injection syringe right before use. An etomidate fat emulsion injection (commercially available, 2 mg/ml) was used as control. The administration concentration in mice was fixed, and the administration volume varied according to actual situation.
(§3) ED50 and LD50 values concerning anesthesia were determined using a sequential method. Administrations in this test were performed on qualified healthy KM mice (male) by injection at a constant rate via caudal vein for 10 seconds. Before the test, a preliminary trial test was conducted to determine an approximate dosage (administration volume) that leads to anesthetization (or death) in animals, which was then set as the intermediate dosage in the formal test. 2-3 Dosage groups were set above and below the intermediate dosage group with an interval of 0.8. The disappearance of righting reflex or death was used as indicators of pharmacological efficacy or toxicity, respectively. The formal test began with the administration of the intermediate dosage. If animals were anesthetized, a lower dosage was administered; otherwise if animals were not anesthetized, a higher dosage was administered, until the cycle was repeated for 3-4 times. LD50 and ED50 values of anesthesia were calculated by a sequential method on aot425 software. TI was calculated according to the following equation: TI=LD50/ED50.

Experiment in data set [4]: as above
The format is in vivo. The conditions noted are these: mouse, in vivo; male KM mice, caudal vein injection over 10 s, death, n = 10-20; range in brackets. The procedure:
as §1, §2, §3

Data set [5] deals with secretion of cortisol and/or corticosterone. The conditions noted are these: background, literature; cited from earlier work.
Data set [6] has as its target T1, 11β-hydroxylase (Homo sapiens, UniProt P15538).
T1 sequence (P15538 25-503): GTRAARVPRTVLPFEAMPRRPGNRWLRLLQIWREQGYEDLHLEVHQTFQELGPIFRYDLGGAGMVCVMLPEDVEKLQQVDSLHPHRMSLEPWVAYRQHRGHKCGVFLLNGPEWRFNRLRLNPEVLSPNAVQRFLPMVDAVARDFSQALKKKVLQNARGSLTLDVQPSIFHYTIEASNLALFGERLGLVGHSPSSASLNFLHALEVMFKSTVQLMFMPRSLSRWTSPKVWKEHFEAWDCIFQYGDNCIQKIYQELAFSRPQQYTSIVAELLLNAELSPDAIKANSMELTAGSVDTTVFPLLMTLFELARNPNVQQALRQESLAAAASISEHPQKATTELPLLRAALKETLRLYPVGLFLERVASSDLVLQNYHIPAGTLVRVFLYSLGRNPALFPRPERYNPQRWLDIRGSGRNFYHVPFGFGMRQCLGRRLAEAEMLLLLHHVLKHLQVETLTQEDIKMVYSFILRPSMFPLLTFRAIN
The conditions noted are these: background statement; cited from earlier work.

For data set [7] the following is noted: background, literature; cited from earlier work.

These results are taken from patent US10392352B2, “Etomidate derivative and intermediate, preparation method and use thereof” (JIANGSU NHWALUOKANG PHARMACEUTICAL RESEARCH AND DEVELOPMENT …, priority 2015, dated 2019).

As to `CCOC(=O)c1c(F)ncn1[C@H](C)c1ccccc1` [Compound 16, ethyl R-1-(1-phenethyl)-1H-4-fluoroimidazole-5-carboxylate], in data set [1], the Walking time came out at 98.10 ± 63.96 s, the Latent period stood at 5.80 ± 0.79 s and the Persistent period is recorded as 82.10 ± 20.18 s. In addition, in data set [2], the grooming came to 10%, the “tail bleeding: few” value stood at 60%, the “tail bleeding: much” value is 30% and the “tail bleeding: none” value amounted to 10%. Further, the tremor in data set [2] is 70%. In data set [2] (post-recovery), the jump was determined as 20% and the quiet turned out to be 80%. In data set [3], this compound yielded an ED50 of 2 mg/kg and a TI of 23. Also, in data set [4], the 50% lethal dose (LD50) came to 46.5 mg/kg.
Regarding `COC(=O)c1c(F)ncn1[C@H](C)c1ccccc1` [Compound 15, methyl R-1-(1-phenethyl)-1H-4-fluoroimidazole-5-carboxylate], in data set [1], the Walking time is listed as 68.80 ± 30.10 s, the Latent period is given as 5.90 ± 0.88 s and the Persistent period turned out to be 83.60 ± 29.13 s. In data set [2], the “tail bleeding: few” value is reported as 50%, the “tail bleeding: much” value is 40%, the “tail bleeding: none” value is given as 10% and the tremor is given as 70%. In addition, the quiet in data set [2] (post-recovery) came to 100%. In data set [3], this compound showed a median effective dose (ED50) of 2 mg/kg and a TI of 24. For the same compound, in data set [4], the 50% lethal dose (LD50) is 48.4 mg/kg.
In data set [1], `CCOC(=O)c1cncn1[C@H](C)c1ccccc1` [Etomidate, ethyl R-(+)-1-(1-phenethyl)-1H-imidazole-5-carboxylate] came in with a Walking time of 156.30 ± 120.78 s, a Latent period of 5.40 ± 0.52 s and a Persistent period of 175.50 ± 100.09 s. In data set [2], the grooming is on record as 20%, the “tail bleeding: few” value was 50%, the “tail bleeding: much” value was found to be 10% and the “tail bleeding: none” value worked out at 40%. Also, in data set [2], the tremor is 80%. In data set [2] (post-recovery), the convulsion amounted to 10%, the jump came out at 40% and the quiet is given as 50%. For the same compound, the “inhibitory effect on the secretion of cortisol and/or corticosterone” value (shortened to “inhibitory effect on the secretion”) in data set [5] is reported as “reduce the secretion”. In addition, in data set [3], it took a dose of 2 mg/kg to reach the 50% effect level (ED50) and the TI is listed as 25. Besides, the LD50 in data set [4] stood at 50.3 mg/kg. Moreover, in data set [6], the “inhibitory effect on 11β-hydroxylase” value was “inhibitory effect”.
Take `CCOC(=O)c1cccn1[C@H](C)c1ccccc1` [Formula 8]: the “inhibitory effect on the secretion” value in data set [5] was “little inhibition”. In addition, in data set [7], the “anesthetic effect / activity” value was “decreased anesthetic activity” and the duration of action entry was “prolonged duration of action”.
In the case of `COC(=O)CCOC(=O)c1cncn1[C@H](C)c1ccccc1` [Formula 7, Methoxycarbonyl-etomidate], the “inhibitory effect on the secretion” value in data set [5] is “lower inhibitory effect”. The “anesthetic effect / activity” value in data set [7] is on record as “drastically decreased anesthetic effect”.

The term ED50 denotes the dose that gives a 50% effect, or the effect in half of the subjects. Read a high ED50 as weaker potency. In general, LD50 refers to the dose expected to kill half of the subjects tested.
